Source: patent US20250176599A1, “FLAVOR COMPOSITION AND FOOD AND BEVERAGE” (TAKASAGO INTERNATIONAL CORPORATION, priority 2021, published 2025)

How the values were obtained:
[1] = Sensory evaluation of aqueous solution II containing (E)-2-octenal 10 ppb: off-flavor intensity and masking component intensity; conditions: (E)-2-octenal 10 ppb, average score 0-4
Description: (§1) In ion-exchanged water, each degradation component was added to achieve the concentrations listed in Table 1, and aqueous solutions I to VI containing these degradation components were prepared.
(§2) For the aforementioned aqueous solutions containing degradation components, nootkatone was added at the concentrations listed in Table 2 to confirm the intensity of the off-flavor (masking effect) in each sample and the intensity of the masking component itself (the impact on the flavor of the food and/or beverage itself).
(§3) The test was conducted as follows. Eight experienced panelists were selected to conduct a sensory evaluation. The intensity of the off-flavor of the aqueous solution containing the degradation components derived from unsaturated fatty acids, without added masking components, was set as “Evaluation: 4.” The ion-exchanged water free of any degradation components was set as “Evaluation: 0.” The intensity of the off-flavor (masking effect) of each sample was then relatively evaluated according to the following evaluation criteria.
(§4) • Off-flavor is strongly sensed: 4 points • Off-flavor is sensed: 3 points • Off-flavor is slightly sensed: 2 points • Off-flavor is barely sensed: 1 point • Off-flavor is not sensed at all: 0 points
(§5) Also, the intensity of the masking components (impact on the flavor of the food and/or beverage itself) was absolutely evaluated according to the following evaluation criteria.
(§6) • Masking component is strongly sensed: 4 points • Masking component is sensed: 3 points • Masking component is slightly sensed: 2 points • Masking component is barely sensed: 1 point • Masking component is not sensed at all: 0 points

[2] = Sensory evaluation of aqueous solution V containing 1-octen-3-ol 10 ppb: off-flavor intensity and masking component intensity; conditions: 1-octen-3-ol 10 ppb, average score 0-4
Description: as §1, §2, §3, §4, §5, §6

[3] = Sensory evaluation of aqueous solution IV containing 1,5-octadien-3-one 100 ppt: off-flavor intensity and masking component intensity; conditions: aqueous solution IV, 1,5-octadien-3-one 100 ppt, average score 0-4
Description: as §1, §2, §3, §4, §5, §6

[4] = Sensory evaluation of aqueous solution VI containing 1,5-octadien-3-ol 10 ppb: off-flavor intensity and masking component intensity; conditions: aqueous solution VI, 1,5-octadien-3-ol 10 ppb, average score 0-4
Description: as §1, §2, §3, §4, §5, §6

[5] = Overall conclusion of the sensory evaluation across aqueous solutions I to VI
Description: as §1, §2, §3, §4, §5, §6

[6] = Sensory evaluation of aqueous solution I containing (E)-2-nonenal 1 ppb: off-flavor intensity and masking component intensity; conditions: (E)-2-nonenal 1 ppb, average score 0-4
Description: as §1, §2, §3, §4, §5, §6

[7] = Sensory evaluation of aqueous solution III containing 1-octen-3-one 1 ppb: off-flavor intensity and masking component intensity; conditions: 1-octen-3-one 1 ppb, average score 0-4
Description: as §1, §2, §3, §4, §5, §6

Structure (SMILES): C=CC(C)(CCC=C(C)C)OC(=O)CCC (stereo not shown) [Linalyl Butyrate, linalyl butyrate]
- Off-Flavor Intensity ([1]; 1 ppb added): 2.3 points
- Off-Flavor Intensity ([1]; 1 ppm added): 0.6 points
- Off-Flavor Intensity ([1]; 5 ppm added): 0.4 points
- Off-Flavor Intensity ([1]; 10 ppb added): 1.8 points
- Off-Flavor Intensity ([1]; 10 ppt added): 3.1 points
- Off-Flavor Intensity ([1]; 50 ppb added): 1.5 points
- Off-Flavor Intensity ([1]; 100 ppb added): 1.4 points
- Off-Flavor Intensity ([1]; 100 ppt added): 2.8 points
- Off-Flavor Intensity ([1]; 500 ppb added): 0.9 points
- Off-Flavor Intensity ([2]; 1 ppb added): 2.6 points
- Off-Flavor Intensity ([2]; 1 ppm added): 1.0 points
- Off-Flavor Intensity ([2]; 5 ppm added): 0.8 points
- Off-Flavor Intensity ([2]; 10 ppb added): 2.3 points
- Off-Flavor Intensity ([2]; 10 ppt added): 3.3 points
- Off-Flavor Intensity ([2]; 50 ppb added): 2.1 points
- Off-Flavor Intensity ([2]; 100 ppb added): 1.9 points
- Off-Flavor Intensity ([2]; 100 ppt added): 3.0 points
- Off-Flavor Intensity ([2]; 500 ppb added): 1.3 points
- Off-Flavor Intensity ([3]; 1 ppb added): 2.9 points
- Off-Flavor Intensity ([3]; 1 ppm added): 0.9 points
- Off-Flavor Intensity ([3]; 5 ppm added): 0.9 points
- Off-Flavor Intensity ([3]; 10 ppb added): 2.6 points
- Off-Flavor Intensity ([3]; 10 ppt added): 3.6 points
- Off-Flavor Intensity ([3]; 50 ppb added): 2.1 points
- Off-Flavor Intensity ([3]; 100 ppb added): 1.6 points
- Off-Flavor Intensity ([3]; 100 ppt added): 3.0 points
- Off-Flavor Intensity ([3]; 500 ppb added): 1.3 points
- Off-Flavor Intensity ([4]; 1 ppb added): 2.0 points
- Off-Flavor Intensity ([4]; 1 ppm added): 0.5 points
- Off-Flavor Intensity ([4]; 5 ppm added): 0.1 points
- Off-Flavor Intensity ([4]; 10 ppb added): 1.8 points
- Off-Flavor Intensity ([4]; 10 ppt added): 2.5 points
- Off-Flavor Intensity ([4]; 50 ppb added): 1.5 points
- Off-Flavor Intensity ([4]; 100 ppb added): 1.3 points
- Off-Flavor Intensity ([4]; 100 ppt added): 2.4 points
- Off-Flavor Intensity ([4]; 500 ppb added): 0.9 points
- concentration that masks the off-flavor and does not affect the flavor of the food and/or beverage itself, lower limit [5]: ≥ 10 ppt
- concentration that masks the off-flavor and does not affect the flavor of the food and/or beverage itself, upper limit [5]: ≤ 1 ppm
- Off-Flavor Intensity ([6]; 1 ppb added): 2.6 points
- Off-Flavor Intensity ([6]; 1 ppm added): 1.3 points
- Off-Flavor Intensity ([6]; 5 ppm added): 1.0 points
- Off-Flavor Intensity ([6]; 10 ppb added): 2.3 points
- Off-Flavor Intensity ([6]; 10 ppt added): 3.4 points
- Off-Flavor Intensity ([6]; 50 ppb added): 2.0 points
- Off-Flavor Intensity ([6]; 100 ppb added): 1.9 points
- Off-Flavor Intensity ([6]; 100 ppt added): 3.1 points
- Off-Flavor Intensity ([6]; 500 ppb added): 1.3 points
- Off-Flavor Intensity ([7]; 1 ppb added): 2.6 points
- Off-Flavor Intensity ([7]; 1 ppm added): 1.5 points
- Off-Flavor Intensity ([7]; 5 ppm added): 1.0 points
- Off-Flavor Intensity ([7]; 10 ppb added): 2.3 points
- Off-Flavor Intensity ([7]; 10 ppt added): 3.5 points
- Off-Flavor Intensity ([7]; 50 ppb added): 1.9 points
- Off-Flavor Intensity ([7]; 100 ppb added): 1.9 points
- Off-Flavor Intensity ([7]; 100 ppt added): 3.3 points
- Off-Flavor Intensity ([7]; 500 ppb added): 1.8 points

Structure (SMILES): C=C(C)[C@@H]1CCC2=CC(=O)C[C@@H](C)[C@]2(C)C1 [Nootkatone, nootkatone]
- Off-Flavor Intensity ([1]; 1 ppb added): 2.6 points
- Off-Flavor Intensity ([1]; 1 ppm added): 1.5 points
- Off-Flavor Intensity ([1]; 5 ppm added): 0.6 points
- Off-Flavor Intensity ([1]; 10 ppb added): 2.5 points
- Off-Flavor Intensity ([1]; 10 ppm added): 0.4 points
- Off-Flavor Intensity ([1]; 10 ppt added): 3.5 points
- Off-Flavor Intensity ([1]; 100 ppb added): 1.9 points
- Off-Flavor Intensity ([1]; 100 ppt added): 3.1 points
- Off-Flavor Intensity ([2]; 1 ppb added): 2.5 points
- Off-Flavor Intensity ([2]; 1 ppm added): 1.5 points
- Off-Flavor Intensity ([2]; 5 ppm added): 0.9 points
- Off-Flavor Intensity ([2]; 10 ppb added): 2.5 points
- Off-Flavor Intensity ([2]; 10 ppm added): 0.5 points
- Off-Flavor Intensity ([2]; 10 ppt added): 3.4 points
- Off-Flavor Intensity ([2]; 100 ppb added): 1.8 points
- Off-Flavor Intensity ([2]; 100 ppt added): 2.9 points
- Off-Flavor Intensity ([3]; 1 ppb added): 3.1 points
- Off-Flavor Intensity ([3]; 1 ppm added): 2.0 points
- Off-Flavor Intensity ([3]; 5 ppm added): 1.3 points
- Off-Flavor Intensity ([3]; 10 ppb added): 2.9 points
- Off-Flavor Intensity ([3]; 10 ppm added): 0.9 points
- Off-Flavor Intensity ([3]; 10 ppt added): 3.6 points
- Off-Flavor Intensity ([3]; 100 ppb added): 2.4 points
- Off-Flavor Intensity ([3]; 100 ppt added): 3.5 points
- Off-Flavor Intensity ([4]; 1 ppb added): 2.5 points
- Off-Flavor Intensity ([4]; 1 ppm added): 1.1 points
- Off-Flavor Intensity ([4]; 5 ppm added): 0.6 points
- Off-Flavor Intensity ([4]; 10 ppb added): 2.1 points
- Off-Flavor Intensity ([4]; 10 ppm added): 0.6 points
- Off-Flavor Intensity ([4]; 10 ppt added): 3.1 points
- Off-Flavor Intensity ([4]; 100 ppb added): 1.5 points
- Off-Flavor Intensity ([4]; 100 ppt added): 3.0 points
- concentration that masks the off-flavor and does not affect the flavor of the food and/or beverage itself, lower limit [5]: ≥ 100 ppt
- concentration that masks the off-flavor and does not affect the flavor of the food and/or beverage itself, upper limit [5]: ≤ 1 ppm
- Off-Flavor Intensity ([6]; 1 ppb added): 2.8 points
- Off-Flavor Intensity ([6]; 1 ppm added): 1.8 points
- Off-Flavor Intensity ([6]; 5 ppm added): 1.1 points
- Off-Flavor Intensity ([6]; 10 ppb added): 2.4 points
- Off-Flavor Intensity ([6]; 10 ppm added): 0.8 points
- Off-Flavor Intensity ([6]; 10 ppt added): 3.4 points
- Off-Flavor Intensity ([6]; 100 ppb added): 2.1 points
- Off-Flavor Intensity ([6]; 100 ppt added): 3.3 points
- Off-Flavor Intensity ([7]; 1 ppb added): 2.6 points
- Off-Flavor Intensity ([7]; 1 ppm added): 1.6 points
- Off-Flavor Intensity ([7]; 5 ppm added): 1.1 points
- Off-Flavor Intensity ([7]; 10 ppb added): 2.3 points
- Off-Flavor Intensity ([7]; 10 ppm added): 0.9 points
- Off-Flavor Intensity ([7]; 10 ppt added): 3.4 points
- Off-Flavor Intensity ([7]; 100 ppb added): 2.1 points
- Off-Flavor Intensity ([7]; 100 ppt added): 3.1 points
